Data as given in US12358890B2, “Substituted tetrahydroisoquinoline derivative as a D1 positive allosteric modulator” (UCB Biopharma SRL, priority 2019, dated 2025).

Key:
[1] = target: T1, dopamine D1 receptor (Homo sapiens, UniProt P21728); assay: cAMP HTRF potentiation assay (in the presence of EC20 dopamine); type: cell-based; conditions: for EC50: potentiation of cAMP levels with EC20 dopamine (1.1 nM), LMtk (Ltk-) mouse fibroblast cells expressing the dopamine D1 receptor; for Emax: with EC20 dopamine, dopamine maximum = 100%, read-out: Erel (relative efficacy, maximal % potentiation relative to dopamine maximal response)
T1 construct: host or cells: LMtk (Ltk-) mouse fibroblast cells
Text: Assays have been designed to measure the effects of compounds in accordance with the present invention in the absence of dopamine (“activation assay”) and in the presence of dopamine (“potentiation assay”).
The potentiation assay measures the ability of compounds to increase the levels of cAMP produced by a low-threshold concentration of dopamine. The concentration of dopamine used ([EC20]) is designed to produce 20% stimulation compared to the maximal response (100%) seen with increasing the concentration of dopamine. To measure this potentiation increasing concentrations of the compound with the [EC20] of dopamine are incubated and the potentiation is measured as increases in cAMP production and concentration of compound which produces 50% of the potentiation of the cAMP levels is measured.
• a. METHODS D1 Cell Culture Cells were cultured at 37° C. in a humidified atmosphere of 5% CO2. Cells were grown in DMEM-F12+GlutaMAX™-I medium (GIBCO®, Invitrogen, Merelbeke, Belgium) containing 10% fetal bovine serum (BioWhittaker®, Lonza, Verviers, Belgium), 400 μg/mL Geneticin (GIBCO®), 100 IU/mL Penicillin and 100 IU/mL Streptomycin (Pen-Strep solution, BioWhittaker®). […] Using homogenous time-resolved fluoresence technology, the assay is based on competition between native cAMP produced by cells and cAMP labelled with the dye d2. The tracer binding is determined by an anti-cAMP antibody labeled with cryptate. The effects of the compound alone (agonism) was determined by performing the assay in the absence of dopamine, whilst the effect of the compound as a positive allosteric modulator (PAM) was determined in the presence of an EC20 concentration of dopamine. Cells (20,000 per well) are incubated in 384 plates for 1 hour at room temperature in a final volume of 20 μL HBSS (Lonza, with calcium, magnesium and HEPES buffer 20 mM, pH 7.4) containing: isobutyl methylxanthine (Sigma, 0.1 mM final), varying concentrations of test compound (typically 10^−9.5M to 10^−4.5M) in the presence and absence of dopamine (1.1 nM final). The reaction is then terminated and the cells lysed by adding the d2 detection reagent in lysis buffer (10 microL) and the cryptate reagent in lysis buffer (10 microl) according to manufacturer's instructions. This is then incubated for a further 60 min at room temperature and changes in HTRF fluorescent emission ratio determined according to manufacturer's instructions using an Envision plate reader (Perkin Elmer, Zaventem, Belgium) with laser excitation. All incubations were performed in duplicate and results were compared to a concentration-effect curve to dopamine. (10^−11M to 10^−6M). • c. […]

[2] = target: T2, human GABAA (α1β2γ2) channels (Homo sapiens, UniProt P14867+P18507+P47870); assay: Automated patch clamp studies on the GABAA receptor (IonFlux HT, CHO-K1 cells); type: cell-based; conditions: compound at 10 μM, GABA 15 μM as agonist, read-out: percentage of inhibition of the GABAA receptor
T2 construct: expressed in transfected cells; host or cells: CHO-K1 cells

[3] = Intrinsic clearance in cryopreserved human hepatocyte suspension (Azamulin Assay); type: in vitro ADME
Protocol: The clearance is generally evaluated by using hepatocyte incubations and scaling calculations, assuming the main elimination pathway is metabolism, according to protocols described herein. The intrinsic clearance evaluated from hepatocytes is expressed in μl/min/10^6 cells.
To this aim, cryopreserved human microsomes (pooled donors) are divided on a 48 well collagen coated plate so that the final concentration is 0.25 mg/ml. The UCB compound is then added in the wells at 1 μM and 20 μM concentration in duplicate. After 30 minutes incubation, midazolam is added at 2.5 μM concentration. After 15 minutes, an aliquot is removed and placed into an equal volume of methanol containing internal standard. The samples are centrifuged at 2500 rpm at 4° C. for 20 min. An aliquot of supernatant is diluted with deionised water and levels of 1-hydroxymidazolam is quantified using generic LC MS/MS methods. The concentrations are compared to those obtained after midazolam incubation at the same concentration but without UCB compound pre-incubation. The results are expressed as % of inhibition. […]
Samples are analyzed by LC-MS-MS bioanalytical method to measure the concentration of UCB compound. The concentration versus time profile is fitted to determine the intrinsic clearance (Clint) expressed as μl/min/10^6 cells.

[4] = target: T3, CYP3A4 (Homo sapiens, UniProt P08684); assay: In vitro assessment of CYP3A4 inhibition potential using cryopreserved human microsomes (midazolam substrate); type: in vitro ADME; conditions: cryopreserved human microsomes (pooled donors), probe midazolam 2.5 μM, read-out: percentage of inhibition of CYP3A4
T3 construct: cryopreserved human microsomes (pooled donors) are divided on a 48 well collagen coated plate; from tissue; host or cells: cryopreserved human microsomes (pooled donors)
Protocol: The objective of the human microsome assay is to characterize the inhibition potential of Compound of formula (I) by measuring the CYP3A4 activities after its co-incubation with midazolam, a specific CYP3A4 substrate.
To this aim, cryopreserved human microsomes (pooled donors) are divided on a 48 well collagen coated plate so that the final concentration is 0.25 mg/ml. The UCB compound is then added in the wells at 1 μM and 20 μM concentration in duplicate. After 30 minutes incubation, midazolam is added at 2.5 μM concentration. After 15 minutes, an aliquot is removed and placed into an equal volume of methanol containing internal standard. The samples are centrifuged at 2500 rpm at 4° C. for 20 min. An aliquot of supernatant is diluted with deionised water and levels of 1-hydroxymidazolam is quantified using generic LC MS/MS methods. The concentrations are compared to those obtained after midazolam incubation at the same concentration but without UCB compound pre-incubation. The results are expressed as % of inhibition. […] Azamulin Assay Cryopreserved human hepatocytes (pool of 20 donors, BSU batch from Celsis/IVT/Bioreclamation) were thawed accordingly the provider's information. Viability (trypan blue exclusion) was higher than 75%. […]

T1 sequence (P21728 whole entry, species assumed): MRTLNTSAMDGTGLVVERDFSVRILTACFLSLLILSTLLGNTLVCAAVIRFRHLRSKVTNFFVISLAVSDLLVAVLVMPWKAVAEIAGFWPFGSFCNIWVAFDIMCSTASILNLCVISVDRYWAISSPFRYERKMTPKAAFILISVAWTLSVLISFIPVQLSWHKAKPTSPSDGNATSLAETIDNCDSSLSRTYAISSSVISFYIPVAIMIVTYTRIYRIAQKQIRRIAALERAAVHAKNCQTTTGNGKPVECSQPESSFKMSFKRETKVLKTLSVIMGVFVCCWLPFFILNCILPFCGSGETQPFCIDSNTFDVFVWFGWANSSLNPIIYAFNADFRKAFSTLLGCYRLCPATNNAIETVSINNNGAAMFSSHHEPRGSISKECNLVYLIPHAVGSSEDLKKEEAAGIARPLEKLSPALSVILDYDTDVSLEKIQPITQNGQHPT
T3 sequence (P08684 whole entry): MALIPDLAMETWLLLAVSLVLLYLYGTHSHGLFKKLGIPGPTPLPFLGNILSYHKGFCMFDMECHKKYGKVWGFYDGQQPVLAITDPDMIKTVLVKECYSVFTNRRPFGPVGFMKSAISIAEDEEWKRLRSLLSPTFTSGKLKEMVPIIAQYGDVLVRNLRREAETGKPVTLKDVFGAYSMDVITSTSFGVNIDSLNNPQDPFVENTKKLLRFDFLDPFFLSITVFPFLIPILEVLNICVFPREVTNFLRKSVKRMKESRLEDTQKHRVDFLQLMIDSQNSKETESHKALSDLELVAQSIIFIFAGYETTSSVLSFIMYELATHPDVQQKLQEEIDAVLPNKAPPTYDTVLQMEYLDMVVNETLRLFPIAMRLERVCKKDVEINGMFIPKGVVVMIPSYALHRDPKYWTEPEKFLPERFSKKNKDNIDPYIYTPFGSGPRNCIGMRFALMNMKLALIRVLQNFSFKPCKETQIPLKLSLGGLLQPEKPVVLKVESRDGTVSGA
T2 sequence (P14867 28-456): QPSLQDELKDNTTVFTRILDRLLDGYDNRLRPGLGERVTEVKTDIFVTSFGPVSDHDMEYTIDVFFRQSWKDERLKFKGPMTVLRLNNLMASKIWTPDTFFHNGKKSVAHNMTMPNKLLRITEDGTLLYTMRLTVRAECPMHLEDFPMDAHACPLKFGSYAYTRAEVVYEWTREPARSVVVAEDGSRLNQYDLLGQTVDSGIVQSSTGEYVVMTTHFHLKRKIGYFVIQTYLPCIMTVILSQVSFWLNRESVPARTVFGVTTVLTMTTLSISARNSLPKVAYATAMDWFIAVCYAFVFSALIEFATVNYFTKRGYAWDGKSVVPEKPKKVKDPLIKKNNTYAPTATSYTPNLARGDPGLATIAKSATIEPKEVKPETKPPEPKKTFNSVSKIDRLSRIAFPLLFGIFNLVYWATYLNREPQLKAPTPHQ
T2 sequence (P47870 25-512 limits assumed): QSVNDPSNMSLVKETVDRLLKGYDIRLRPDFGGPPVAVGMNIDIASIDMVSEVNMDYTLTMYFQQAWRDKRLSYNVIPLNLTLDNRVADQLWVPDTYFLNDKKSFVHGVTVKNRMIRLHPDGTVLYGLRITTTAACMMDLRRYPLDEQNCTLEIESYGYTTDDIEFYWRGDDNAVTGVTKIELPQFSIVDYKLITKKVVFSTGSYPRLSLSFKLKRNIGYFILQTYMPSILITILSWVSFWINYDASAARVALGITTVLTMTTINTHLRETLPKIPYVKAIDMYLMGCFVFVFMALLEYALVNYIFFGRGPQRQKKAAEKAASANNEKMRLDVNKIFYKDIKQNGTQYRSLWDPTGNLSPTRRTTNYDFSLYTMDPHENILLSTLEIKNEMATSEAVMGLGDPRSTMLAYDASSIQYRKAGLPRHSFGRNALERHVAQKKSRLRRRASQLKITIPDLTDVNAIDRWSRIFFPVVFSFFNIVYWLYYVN
T2 sequence (P18507 40-475): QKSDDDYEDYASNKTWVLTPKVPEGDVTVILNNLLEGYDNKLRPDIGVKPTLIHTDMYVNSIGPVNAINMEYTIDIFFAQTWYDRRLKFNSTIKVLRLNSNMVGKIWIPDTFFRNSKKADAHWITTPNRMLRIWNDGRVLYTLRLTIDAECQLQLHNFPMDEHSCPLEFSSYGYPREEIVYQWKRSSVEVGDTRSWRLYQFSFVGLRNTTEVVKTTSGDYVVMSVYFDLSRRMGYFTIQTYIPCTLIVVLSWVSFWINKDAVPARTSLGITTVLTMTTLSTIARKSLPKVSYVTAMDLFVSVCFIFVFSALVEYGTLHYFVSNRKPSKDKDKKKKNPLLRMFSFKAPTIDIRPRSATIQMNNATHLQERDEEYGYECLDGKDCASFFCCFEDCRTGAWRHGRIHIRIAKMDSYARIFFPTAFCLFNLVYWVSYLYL

Row | SMILES | EC50 [1] [nM] | Emax [1] [%] | inhibition at 10 µM [2] [%] | hepatocyte CLint at 0.5 μM [3] [µL/min/1e6 cells] | inhibition at 15 min, 1 μM ([4]; compound at 1 μM) [%] | inhibition at 15 min, 20 μM ([4]; compound at 20 μM) [%]
1 | CC1c2cccc(C(C)(O)CF)c2CCN1C(=O)Cc1c(Cl)cnc(CO)c1Cl (stereo not shown) [(Ib)] | ~200 | ~61 | ~20 | ~9.2 |  | 
2 | C[C@H]1c2cccc([C@](C)(O)CF)c2CCN1C(=O)Cc1c(Cl)cnc(CO)c1Cl [compound of formula (Ia), 2-[3,5-dichloro-2-(hydroxymethyl)-4-pyridyl]-1-[(1S)-5-[(1S)-2-fluoro-1-hydroxy-1-methyl-ethyl]-1-methyl-3,4-dihydro-1H-isoquinolin-2-yl]ethanone] | ~126 | ~64 | ~13 | ~8.8 | ~20 | ~28
